Blank lines part the entries; values can stand above or below the compound they belong to.
Columns and labels:
[1] = molecular target: T1, His6-tagged hSEP ectodomain (Homo sapiens, UniProt Q495T6); experiment: In vitro investigation of the hSEP-inhibitory action (fluorescence-quenched Big-ET-1 analogue, HPLC); format: biochemical
T1 construct: His6-tagged hSEP ectodomain; His6; purchased Innogenetics, Ghent, Belgium
T1 sequence (Q495T6 49-779 limits assumed): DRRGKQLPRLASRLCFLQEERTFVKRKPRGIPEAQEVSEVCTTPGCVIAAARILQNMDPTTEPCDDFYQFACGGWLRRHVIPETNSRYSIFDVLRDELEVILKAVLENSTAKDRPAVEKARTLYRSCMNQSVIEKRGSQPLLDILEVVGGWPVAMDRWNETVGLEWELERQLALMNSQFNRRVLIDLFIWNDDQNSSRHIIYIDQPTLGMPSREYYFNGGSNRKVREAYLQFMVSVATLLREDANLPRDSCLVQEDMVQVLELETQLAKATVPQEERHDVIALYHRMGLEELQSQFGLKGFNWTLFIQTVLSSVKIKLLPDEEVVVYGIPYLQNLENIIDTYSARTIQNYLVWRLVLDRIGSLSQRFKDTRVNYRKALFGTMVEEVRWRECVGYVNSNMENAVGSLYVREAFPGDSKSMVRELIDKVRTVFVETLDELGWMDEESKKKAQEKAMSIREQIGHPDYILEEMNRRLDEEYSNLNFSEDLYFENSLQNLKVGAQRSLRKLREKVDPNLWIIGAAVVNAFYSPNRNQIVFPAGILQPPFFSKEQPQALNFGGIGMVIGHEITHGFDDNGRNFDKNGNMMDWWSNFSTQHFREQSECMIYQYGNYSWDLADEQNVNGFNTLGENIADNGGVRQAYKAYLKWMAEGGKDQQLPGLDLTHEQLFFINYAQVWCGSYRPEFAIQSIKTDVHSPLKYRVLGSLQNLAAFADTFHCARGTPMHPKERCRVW
Method in brief: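 Performed as for the NEP assay, with HPLC analysis and 10 nM phosphoramidon as the standard inhibitor. IC50 is the compound concentration blocking 50% of hSEP enzymatic activity.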

[2] = test system: maximal SAP response to Big-ET; experiment: In vivo inhibition of maximal SAP response to Big-ET in anesthetized rats after oral administration; set-up: species or system Rats (Sprague-Dawley); conditions: oral by gavage, 100 μmol/kg, 1 h before Big-ET challenge; mean ± standard error; negative = inhibition
Description: Rats (Sprague-Dawley, CRLD=Charles River) were anaesthetised with 1 ml/kg Rompun/Ketavet 1:1. A pressure transducer (Statham) was inserted into the carotid artery to measure blood pressure.
For oral testing, the substances (or vehicle) were given by gavage at doses of 100 μmol/kg each, 1 h before the Big-ET challenge, and blood pressure and heart rate were monitored as described above.
The inhibition of maximal SAP response to Big-ET in anesthetized rats following oral administration of the test substances of Formula I is set forth in the following Table 3c: […]
Data given in table 3c as negative values indicate an inhibitory effect. Values are means from 3-6 independent series of experiments ±standard error.

[3] = Plasma protein binding, equilibrium dialysis, rat plasma; format: in vitro ADME; conditions: rat plasma (10% for routine testing), 37° C., pH 7.4, 10% plasma (100% for low binders), read-out: % bound (rat plasma) (converted)
Description: (§1) Plasma protein binding of the test substances of Formula I was measured using a validated equilibrium dialysis method. The dialysis cells consisted of two halves separated by a semi-permeable membrane slightly tensioned in between. […] Before being used, the membranes were re-hydrated by soaking in water followed by the dialysis buffer. Plasma (10% for routine testing, and 100% for compounds found to have a low protein binding) was heated to 37° C. and adjusted to pH 7.4 before use. 5 μM test compound solutions (final dimethylsulfoxide concentration 0.5%) were prepared in isotonic phosphate buffer containing rat or human plasma. The plasma-containing solution was on one side of the membrane, and the plasma-free on the other. Incubations were performed overnight (10% plasma assay), or for 2 hours (100% plasma assay) in triplicate. The cells were mounted in a drive unit that rotated the cells and ensured a uniform equilibrium was obtained. The equilibrium was temperature controlled by the drive unit being immersed in a water bath at 37° C. At the end of the equilibration time, the cells were emptied. The solutions for each batch of compounds were combined into two groups (plasma-free and plasma-containing) then cassette analysed by LC-MS/MS using two sets of calibration standards for plasma-free (7 points) and plasma-containing solutions (6 points). The percentage of protein bound compound was calculated as follows: [formula] PC=sample concentration in protein containing side; PF=sample concentration in protein free side;

[4] = molecular target: T2, soluble, human recombinant NEP (Homo sapiens, UniProt P08473); experiment: In-vitro investigation of the NEP inhibitory action (fluorescence-quenched Big-ET-1 analogue, HPLC); format: biochemical
T2 construct: soluble, human recombinant NEP; purchased Prof; Crine, University of Montreal, Canada
T2 sequence (P08473 52-750 limits assumed): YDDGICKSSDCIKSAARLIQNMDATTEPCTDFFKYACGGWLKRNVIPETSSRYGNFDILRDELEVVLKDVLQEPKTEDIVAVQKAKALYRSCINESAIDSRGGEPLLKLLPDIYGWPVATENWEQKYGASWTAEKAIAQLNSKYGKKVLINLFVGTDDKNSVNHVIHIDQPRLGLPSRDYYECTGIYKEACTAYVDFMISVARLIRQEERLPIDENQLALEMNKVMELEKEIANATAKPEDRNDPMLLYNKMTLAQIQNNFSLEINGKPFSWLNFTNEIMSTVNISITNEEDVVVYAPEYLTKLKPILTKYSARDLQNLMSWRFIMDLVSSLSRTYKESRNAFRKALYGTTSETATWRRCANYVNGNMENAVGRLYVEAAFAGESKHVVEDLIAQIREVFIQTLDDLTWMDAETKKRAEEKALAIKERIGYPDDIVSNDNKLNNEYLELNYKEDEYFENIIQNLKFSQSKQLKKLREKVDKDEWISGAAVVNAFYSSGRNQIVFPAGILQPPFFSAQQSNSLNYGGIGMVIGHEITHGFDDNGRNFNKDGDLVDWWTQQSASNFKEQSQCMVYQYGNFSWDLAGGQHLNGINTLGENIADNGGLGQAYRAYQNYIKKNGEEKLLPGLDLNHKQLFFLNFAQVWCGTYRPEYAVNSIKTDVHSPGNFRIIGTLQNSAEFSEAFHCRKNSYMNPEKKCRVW
Method in brief: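 Enzyme preincubated with test substance 15 min at 37° C, then incubated with fluorescence-quenched Mca peptide substrate 60 min at 37° C and stopped by heating to 95° C. Cleaved and intact peptide separated by reversed-phase HPLC; unquenched Mca peak area (ex 328/em 393 nm) gave % inhibition versus no-compound control, duplicates, IC50 derived.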

[5] = Plasma protein binding, equilibrium dialysis, human plasma; format: in vitro ADME; conditions: human plasma (10% for routine testing), 37° C., pH 7.4, 10% plasma (100% for low binders), read-out: % bound (human plasma) (converted)
Description: as §1

[6] = molecular target: T3, hSEP (sol hu)(his)6; His6-tagged hSEP ectodomain (Homo sapiens, UniProt Q495T6); experiment: Enzymatic breakdown of CNP and VIP by hSEP and its inhibition, in vitro, HPLC; format: biochemical; conditions: no inhibitor, 37° C.
T3 construct: His6-tagged hSEP ectodomain; His6; purchased Innogenetics, Ghent, Belgium
T3 sequence (Q495T6 49-779 limits assumed): T1 sequence (Q495T6 49-779 limits assumed)
Description: The inhibition of the enzymatic breakdown of CNP and VIP by the compounds used according to the invention was measured in an enzymatic in vitro assay according to the following protocol:
All test compounds were dissolved in DMSO at 10 mM and further diluted with assay buffer.
80 μl of assay buffer, 10 μl of enzyme working solution (NEP or hSEP) and 10 μl of peptide stock solution (VIP or CNP) were mixed in an Eppendorf vial and incubated for 120 min. at 37° C. The enzymatic reaction was subsequently terminated by heating to 95° C. for 5 min. After centrifugation (Heraeus Biofuge B, 3 min) the supernatant was subjected to HPLC.
70 μl of assay buffer, 10 μl of enzyme working solution (NEP or hSEP) and 10 μl of a test compound solution were mixed in an Eppendorf vial and preincubated at 37° C. for 15 minutes. Then, 10 μl of peptide stock solution (VIP or CNP) was added and the reaction mixture was incubated at 37° C. for 60 min. to allow enzymatic hydrolysis. The enzymatic reaction was subsequently terminated by heating to 95° C. for 5 min. After centrifugation (Heraeus Biofuge B, 3 min) the supernatant was subjected to HPLC. In order to separate the remaining substrate from the cleavage products, a reversed phase HPLC technique with a CC 125/4 Nucleosil 300/5 C18 RP column and a CC 8/4 Nucleosil 100/5 C18 precolumn (Macherey-Nagel, Düren, Germany) was used. 60 μl of the reaction samples were injected into the HPLC and the column was eluted at a flow rate of 1 ml/min with the following gradient:
All peptides were detected by absorbance at 214 nm (UV spectroscopy). The percentage (=%) of hydrolysis was calculated on the basis of the peak area of the undegraded peptide for an enzyme containing sample Y in correlation to a sample containing the same concentration of peptide without enzyme (blank) by the following equation: % hydrolysis=100*(blank−Y)
Basis of the calculation of % inhibition is the peak area of the undegraded peptide (VIP or CNP) for an inhibitor containing sample X in comparison to samples containing only peptide (blank) or peptide and enzyme without inhibitor (control) according to the following equation: % inhib=100*(X−control)/(blank−control)
All samples were run in duplicate and mean values were used. A solvent control (0.1% DMSO) was added to each assay run. CNP and VIP were cleaved by NEP and hSEP in vitro.

IC50 [1]: 3 nM
fraction unbound at 5 μM [3]: 0.73
IC50 [4]: 16 nM
fraction unbound at 5 μM [5]: 0.66
Compound: CCN(CCCN)C(=O)CC(CC1(C(=O)NC2CCc3ccccc3N(CC(=O)O)C2=O)CCCC1)C(=O)O (stereo not shown) [Example 80, 4-[(3-aminopropyl)(ethyl)amino]-2-{[1-({[1-(carboxymethyl)-2-oxo-2,3,4,5-tetrahydro-1H-1-benzazepin-3-yl]amino}carbonyl)cyclopentyl]methyl}-4-oxobutanoic acid]
% substance-related inhibition of the maximum Big-ET effect on SAP vs. control [2]: −43 ± 5%

breakdown of CNP by hSEP, degradation at t = 2 h [6]: 46%
Compound: CNP: c-type natriuretic peptide, CNP (32-53), substrate of NEP and hSEP; supplier Bachem [reference compound]

breakdown of VIP by hSEP, degradation at t = 2 h [6]: 36%
Compound: VIP: vasoactive intestinal peptide, substrate of NEP and hSEP; supplier Bachem [reference compound]
